Experimental data from patent US20180312493A1, “Antibiotic Compounds, Pharmaceutical Formulations Thereof And Methods And Uses Therefor” (Simon Fraser University, priority 2015, published 2018).
≈ marks a conversion by molar mass, not a printed value.

What was measured:
MRSA Pyk = target: T1, MRSA Pyk (Staphylococcus aureus, UniProt Q6GG09); assay: MRSA pyruvate kinase (PK) activity, continuous LDH-coupled assay; assay type: biochemical, methicillin resistant S. aureus (MRSA252)
T1 construct: made in house; host or cells: E. coli BL-21 (DE3)
Text: Genomic DNA of MRSA strain Sanger 252 extracted using DNeasy Tissue Kit™ (Qiagen™) was used as a template to generate the His-tagged MRSA PK. Human cDNA from MCF-7 breast cancer cell line (courtesy of Dr. J Wong, BC Cancer Research Center (Vancouver, Canada)) was used as a template to generate the full-length human M2 PK enzyme. The following primer sets were used creating appropriate restriction sites (NdeI and XhoI sites underlined): For cloning of MRSA PK: M27F 5′-[…]-3′ and M27R 5′-[…]-3′, for cloning of human M2 PK isoform: hM2F 5′-[…]-3′ and hM2R 5′-[…]-3′. The resulting PCR fragments for each construct were cloned into the NdeI and XhoI unique sites of the bacterial expression vector pET-28a (+) (Novagen™). […] The sequence and the correct reading frame of all constructs were verified by sequencing. Human M1, R and L PK constructs in pET-28-a(+) vectors (courtesy of Dr. L. Cantley, Harvard Medical, School (Boston, USA)) were used to generate relevant recombinant His-tagged human PK isoforms.
MRSA and human constructs in pET-28a(+) were used to express relevant recombinant PK proteins in E. coli BL-21 (DE3). The proteins were expressed and purified using Ni-NTA agarose (Qiagen™) according to the manufacturer's protocol. Briefly, cells were grown to an absorbance of 0.4-0.5 at 600 nm in 2×YT medium, then induced with 0.1 mM IPTG for 3 h at 20° C. Cells were lysed by sonication on ice (3×10-s bursts with a 30-s recovery between bursts) in lysis buffer (0.2 mg/ml lysozyme, 50 mM Tris pH 7.5, 10 mM MgCl2, 200 mM NaCl, 100 mM KCl, 10% glycerol, 10 mM imidazole, 0.5% NP-40 and 1 mM DTT containing Complete™ protease inhibitor). Cell lysates were cleared by centrifugation (18,000×g in a Beckman™ JA-20 rotor) for 20 min at 4° C. and PK isoforms were purified by batch binding to Ni-NTA resin. The resins were then packed in columns (1×2 cm) and washed with 400 column volumes lysis buffer containing 30 mM imidazole. His-tagged PK isoforms were eluted with the same buffer containing 300 mM imidazole. The proteins were dialyzed overnight at 4° C. against 2000 volumes of ice-cold 30 mM Tris pH 7.5, 25 mM KCl, 5 mM MgCl2, 10% glycerol and 1 mM DTT to remove imidazole. All purification steps were done at 4° C.; enzymes were flash-frozen and stored at −70° C. Enzymatic activity of frozen protein preparations was stable for at least 10 months and up to 5 freeze/thaw cycles. Purity and physical integrity of proteins were assessed using SDS-polyacrylamide gel electrophoresis (SDS-PAGE) followed by coomassie blue staining. Protein concentration was estimated by Bradford assay (Bio-Rad Protein Assay™) using bovine serum albumin as a standard.
Candidate MRSA PK inhibitors were assayed for their ability to inhibit enzymatic activities of MRSA and human PKs. PK activity was determined using a continuous assay coupled to lactate dehydrogenase (LDH) in which the change in absorbance at 340 nm owing to oxidation of NADH was measured using a Benchmark Plus™ microplate spectrophotometer (Bio-Rad Laboratories, Hercules, Calif.). […] Reactions were initiated by the addition of 15 nM of one of the PK enzymes. PK activity proportional to the rate of change at 340 nm was expressed as specific activity (μmol/min/mg), which is defined as the amount of PK that catalyzes the formation of one micromole of either product per minute. Inhibitors were dissolved in DMSO with the final concentration of the solvent never exceeding 1% of the assay volume. IC50 values were calculated by curve fitting on a four-parameter dose-response model with variable slope using Graphpad Prism 5.0™ (GraphPad™ Software Inc., La Jolla, Calif.). In all studies, less than 10% of total PEP was exhausted during the reaction. Reactions were performed at 30° C. for up to 5 min. All values determined represent at least two measurements, in triplicate (Tables 1-6) or duplicate unless mentioned otherwise. […]

S. aureus (ATCC29213) = assay: In vitro susceptibility, broth microdilution (MIC); assay type: cell-based; conditions: Staphylococcus aureus; S. aureus ATCC29213; 18-24 h, 37 C; read-out: Antimicrobial activity (MIC) S. aureus ATCC29213
Text: Epidemic methicillin resistant S. aureus (MRSA) strain sequenced at the Sanger Centre (MRSA252, NRS71) was obtained from NARSA (Network on Antimicrobial Resistance in S. aureus). Methicillin sensitive S. aureus (ATCC 29213 and 25923), methicillin resistant S. aureus (ATCC BAA-1762), and Salmonella typhimurium (ATCC BAA-185) were obtained from ATCC, The Global Bioresource Center. Acinetobacter baumannii (ATCC 19606 and ATCC 17978), Klebsiella pneumonia (C238), vancomycin resistant Enterococci #2 (2010A) (VRE#2), MRSA (USA400, MW2) and Pseudomonas aeruginosa (PA0-1) were obtained from the laboratory of Dr B. B. Finlay at the University of British Columbia (Vancouver, Canada).
The antimicrobial activities of PK inhibitor candidates were determined using the 96-well microtiter standard 2-fold serial broth microdilution method as described by CLSI (formerly NCCLS) with the various gram-positive and gram-negative bacteria species mentioned above. Bacteria from a single colony were grown, overnight in either BHI Broth (VRE), mueller hinton broth (S. aureus 29213; MRSA USA400, A. baumannii 19606, MRSA BAA-1762) or L-broth (P. aeruginosa, S. typhimurium, K. pneumonia and A. baumannii 17978). […] Culture plates were incubated for 18-24 h at 37° C., and optical density at 600 nm (OD600) was measured using a Benchmark Plus™ microplate spectrophotometer (Bio-Rad™). The absorbance control values for the series containing CAMHB and inhibitor were subtracted as background from the corresponding infected wells. Minimal inhibitory concentration (MIC) was defined as the lowest concentration of test compound leading to complete inhibition of cell growth in relation to compound-free control wells as determined by optical density. Vancomycin, methicillin and ciprofloxicin were used as reference compounds. All assays were run in triplicate or duplicate. Experiments were replicated at least twice to verify reproducibility using the above conditions.

T1 sequence (Q6GG09 whole entry): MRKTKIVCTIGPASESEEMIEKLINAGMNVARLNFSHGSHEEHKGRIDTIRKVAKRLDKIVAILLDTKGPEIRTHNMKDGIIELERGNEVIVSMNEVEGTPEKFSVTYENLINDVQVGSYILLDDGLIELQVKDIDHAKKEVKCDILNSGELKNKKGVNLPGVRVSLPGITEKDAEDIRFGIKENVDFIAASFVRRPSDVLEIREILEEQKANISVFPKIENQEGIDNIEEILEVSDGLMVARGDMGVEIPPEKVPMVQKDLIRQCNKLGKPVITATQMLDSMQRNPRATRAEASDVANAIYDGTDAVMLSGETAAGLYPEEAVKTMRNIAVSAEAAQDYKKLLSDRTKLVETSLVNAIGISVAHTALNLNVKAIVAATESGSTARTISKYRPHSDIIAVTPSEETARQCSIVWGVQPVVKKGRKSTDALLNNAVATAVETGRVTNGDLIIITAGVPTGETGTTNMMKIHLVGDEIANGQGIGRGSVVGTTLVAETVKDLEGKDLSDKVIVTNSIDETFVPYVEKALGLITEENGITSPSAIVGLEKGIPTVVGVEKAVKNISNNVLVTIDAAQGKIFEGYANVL

Structure (SMILES)	IC50 (MRSA Pyk)	MIC (S. aureus (ATCC29213))
O=C(NCCN1CCNCC1)c1c(/C=C/c2ccc(Cl)cc2)[nH]c2cc(Br)ccc12 [Compound 52, (E)-6-Bromo-2-(4-chlorostyryl)-N-(2-(piperazin-1-yl)ethyl)-1H-indole-3-carboxamide]	< 0.1 µM	16 mg/L (≈ 32.8 µM)
CN1CCN(CCNC(=O)c2c(/C=C/c3ccc(Cl)cc3)[nH]c3cc(Br)ccc23)CC1 [Compound 31, (E)-6-Bromo-2-(4-chlorostyryl)-N-(2-(4-methylpiperazin-1-yl)ethyl)-1 H-indole-3-carboxamide]	< 0.1 µM	16 mg/L (≈ 31.9 µM)
O=C(c1c(CCc2ccc(Cl)cc2)[nH]c2cc(Br)ccc12)N1CCOCC1 [Compound 47, (6-Bromo-2-(4-chlorophenethyl)-1H-indol-3-yl)(morpholino)methanone]	> 1 µM	> 64 mg/L
O=C(NCc1ccccc1)c1c(/C=C/c2ccc(Cl)cc2)[nH]c2cc(Br)ccc12 [Compound 27, (E)-N-Benzyl-6-bromo-2-(4-chlorostyryl)-1H-indole-3-carboxamide]	< 0.1 µM	> 64 mg/L
CN(C)CCC(=O)c1c(/C=C/c2cn3ccccc3n2)[nH]c2cc(Br)ccc12 [Compound 9, (E)-1-(6-Bromo-2-(2-(imidazo[1,2-a]pyridin-2-yl)vinyl)-1H-indol-3-yl)-3-(dimethylamino)propan-1-one]	0.1 to 1 µM	32 mg/L (≈ 73.2 µM)
FC(F)(F)c1c(/C=C/c2ccc(Cl)cc2)[nH]c2cc(Br)ccc12 [Compound 65, (E)-6-Bromo-2-(4-chlorostyryl)-3-(trifluoromethyl)-1H-indole]	< 0.1 µM	1 mg/L (≈ 2.5 µM)
Clc1ccc(/C=C/c2[nH]c3cc(Br)ccc3c2-c2nn[nH]n2)cc1 [Compound 69, (E)-6-Bromo-2-(4-chlorostyryl)-3-(2H-tetrazol-5-yl)-1H-indole]	< 0.1 µM	16 mg/L (≈ 39.9 µM)
O=C(c1c(/C=C/c2ccc(Cl)cc2)[nH]c2cc(Br)ccc12)N1CCNCC1 [Compound 25, (E)-(6-Bromo-2-(4-chlorostyryl)-1H-indol-3-yl)(piperazin-1-yl)methanone]	0.1 to 1 µM	8 mg/L (≈ 18 µM)
O=C(c1c(/C=C/c2ccc(Cl)cc2)[nH]c2cc(Br)ccc12)C1CC1 [Compound 2, (E)-(6-Bromo-2-(4-chlorostyryl)-1H-indol-3-yl)(cyclopropyl)methanone]	< 0.1 µM	2 mg/L (≈ 4.99 µM)
CN(C)CCN(C)C(=O)c1c(/C=C/c2ccc(Cl)cc2)[nH]c2cc(Br)ccc12 [Compound 24, (E)-6-Bromo-2-(4-chlorostyryl)-N-(2-(dimethylamino)ethyl)-N-methyl-1H-indole-3-carboxamide]	0.1 to 1 µM	> 64 mg/L
CN(C)C(=O)c1c(/C=C/c2ccc(Cl)cc2)[nH]c2cc(Br)ccc12 [Compound 21, (E)-6-Bromo-2-(4-chlorostyryl)-N,N-dimethyl-1H-indole-3-carboxamide]	< 0.1 µM	> 64 mg/L
N#Cc1c(/C=C/c2ccc(Cl)cc2)[nH]c2cc(Br)ccc12 [Compound 67, (E)-6-Bromo-2-(4-chlorostyryl)-1H-indole-3-carbonitrile]	> 1 µM	> 64 mg/L
O=C(O)COc1cc2[nH]c(-c3cc4ccc(Br)cc4[nH]3)cc2cc1Cl [Compound 187, 2-((6′-Bromo-5-chloro-1H,1′H-[2,2′-biindol]-6-yl)oxy)acetic Acid]	< 0.1 µM	64 mg/L (≈ 153 µM)
N[C@@H](CCCCNC(=O)c1c(/C=C/c2ccc(Cl)cc2)[nH]c2cc(Br)ccc12)C(=O)O [Compound 54, (S,E)-2-Amino-6-(6-bromo-2-(4-chlorostyryl)-1H-indole-3-carboxamido)hexanoic Acid]	< 0.1 µM	> 64 mg/L
CC(O)(c1c(/C=C/c2ccc(Cl)cc2)[nH]c2cc(Br)ccc12)C(F)(F)F (stereo not drawn) [Compound 18, (E)-2-(6-Bromo-2-(4-chlorostyryl)-1H-indol-3-yl)-1,1,1-trifluoropropan-2-ol]	< 0.1 µM	1 mg/L (≈ 2.25 µM)
CN1CCN(CCNC(=O)c2c(C(=O)Nc3ccc(Cl)cc3)[nH]c3cc(Br)ccc23)CC1 [Compound 79, 6-Bromo-N2-(4-chlorophenyl)-N3-(2-(4-methylpiperazin-1-yl)ethyl)-1 H-indole-2,3-dicarboxamide]	< 0.1 µM	> 64 mg/L
O=C(NCCN1CCN(C(=O)CCC(=O)N2CCN(CCNC(=O)c3c(/C=C/c4ccc(Cl)cc4)[nH]c4cc(Br)ccc34)CC2)CC1)c1c(/C=C/c2ccc(Cl)cc2)[nH]c2cc(Br)ccc12 [Compound 55, (E)-N,N′-((4,4′-succinylbis(piperazine-4,1-diyl))bis(ethane-2,1-diyl))bis(6-bromo-2-((E)-4-chlorostyryl)-1H-indole-3-carboxamide)]	> 1 µM	> 64 mg/L
NS(=O)(=O)c1c(CCc2ccc(Cl)cc2)[nH]c2cc(Br)ccc12 [Compound 70, 6-Bromo-2-(4-chlorophenethyl)-1H-indole-3-sulfonamide]	> 1 µM	> 64 mg/L
NC(=NO)c1c(/C=C/c2ccc(Cl)cc2)[nH]c2cc(Br)ccc12 [Compound 68, 6-Bromo-2-((E)-4-chlorostyryl)-N′-hydroxy-1H-indole-3-carboximidamide]	< 0.1 µM	8 mg/L (≈ 20.5 µM)
CN1CCN(CCC(=O)c2c(/C=C/c3cn4ccccc4n3)[nH]c3cc(Br)ccc23)CC1 [Compound 8, (E)-1-(6-Bromo-2-(2-(imidazo[1,2-a]pyridin-2-yl)vinyl)-1H-indol-3-yl)-3-(4-methylpiperazin-1-yl)propan-1-one]	0.1 to 1 µM	64 mg/L (≈ 130 µM)
O=C(O)CCC(=O)N1CCN(CCNC(=O)c2c(/C=C/c3ccc(Cl)cc3)[nH]c3cc(Br)ccc23)CC1 [Compound 59, (E)-4-(4-(2-(6-Bromo-2-(4-chlorostyryl)-1H-indole-3-carboxamido)ethyl)piperazin-1-yl)-4-oxobutanoic Acid]	0.1 to 1 µM	> 64 mg/L
